In US20230250088A1, “COMPOUNDS AND COMPOSITIONS FOR TREATING CONDITIONS ASSOCIATED WITH STING ACTIVITY” (IFM Due, Inc., priority 2020, published 2023):
Several values for one entry are separate records, joined by “and”; a condition that tells them apart may be missing. Equal entries are not always repeated. Where two headings read alike, the source gives them in different places.

Target: T1, hSTING (Homo sapiens, UniProt Q86WV6, G230A/H232R/R293Q/R71H)
T1 construct: host or cells: THP1-Dual KO-IFNAR2 cells
Assay: STING reporter assay (luciferase) in THP1-Dual KO-IFNAR2 cells activated with 2′3′cGAMP
Assay type: cell-based
Details: 2′3′cGAMP 15 μM final, Lipofectamine 2000, 24 h, luciferase reporter activity
Experimental: STING pathway activation by the compounds described herein was measured using THP1-Dual™ cells (KO-IFNAR2).
THP1-Dual™ KO-IFNAR2 Cells (obtained from invivogen) were maintained in RPMI, 10% FCS, 5 ml P/S, 2 mM L-glut, 10 mM Hepes, and 1 mM sodium pyruvate. Compounds were spotted in empty 384 well tissue culture plates (Greiner 781182) by Echo for a final concentration of 0.0017-100 μM. Cells were plated into the TC plates at 40 μL per well, 2×10E6 cells/mL. For activation with STING ligand, 2′3′cGAMP (MW 718.38, obtained from Invivogen), was prepared in Optimem media.
The following solutions were prepared for each 1×384 plate: • Solution A: 2 mL Optimem with one of the following stimuli: • 60 μL of 10 mM 2′3′cGAMP→150 μM stock • Solution B: 2 mL Optimem with 60 μL Lipofectamine 2000→Incubate 5 min at RT
2 mL of solution A and 2 ml Solution B was mixed and incubated for 20 min at room temperature (RT). 20 μL of transfection solution (A+B) was added on top of the plated cells, with a final 2′3′cGAMP concentration of 15 μM. The plates were then centrifuged immediately at 340 g for 1 minute, after which they were incubated at 37° C., 5% CO2, >98% humidity for 24h. Luciferase reporter activity was then measured. EC50 values were calculated by using standard methods known in the art.
Luciferase reporter assay: 10 μL of supernatant from the assay was transferred to white 384-plate with flat bottom and squared wells. One pouch of QUANTI-Luc™ Plus was dissolved in 25 mL of water. 100 μL of QLC Stabilizer per 25 mL of QUANTI-Luc™ Plus solution was added. 50 μL of QUANTI-Luc™ Plus/QLC solution per well was then added. Luminescence was measured on a Platereader (e.g., Spectramax I3X (Molecular Devices GF3637001)).
Luciferase reporter activity was then measured. EC50 values were calculated by using standard methods known in the art.

[1] = THP1-Dual KO-IFNAR2 cells, read-out: hSTING EC50
[2] = hSTING EC50, THP1-Dual KO-IFNAR2 cells

T1 sequence (Q86WV6 whole entry R71H/G230A/H232R/R293Q): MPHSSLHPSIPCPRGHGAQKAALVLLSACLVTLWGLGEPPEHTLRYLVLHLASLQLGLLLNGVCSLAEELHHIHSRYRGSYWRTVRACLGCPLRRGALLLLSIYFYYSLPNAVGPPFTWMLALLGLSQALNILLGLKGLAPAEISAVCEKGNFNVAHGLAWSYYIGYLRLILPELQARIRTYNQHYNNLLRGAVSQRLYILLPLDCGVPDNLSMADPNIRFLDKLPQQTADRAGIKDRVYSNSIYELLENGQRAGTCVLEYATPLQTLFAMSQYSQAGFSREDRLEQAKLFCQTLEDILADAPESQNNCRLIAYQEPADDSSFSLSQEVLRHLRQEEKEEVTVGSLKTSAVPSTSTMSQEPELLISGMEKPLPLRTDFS

Row | Structure (SMILES) | EC50 [1] | EC50 [2] [µM]
1 | O=C(Nc1c[nH]c2cc(F)c(F)cc12)c1c2ccccc2nn1Cc1ccc(C(F)(F)F)cc1 [Compound 101] | 1 to 5 µM | –
2 | O=C(Nc1c[nH]c2cc(F)c(F)cc12)c1c2ccccc2nn1CCC(F)(F)F [Compound 102] | 5 to 100 µM | –
3 | O=C(Nc1c[nH]c2cc(F)c(F)cc12)c1nn(CCC(F)(F)F)c2ccccc12 [Compound 103] | – | 0.2 to 1
4 | Cc1ccc2c(C(=O)Nc3c[nH]c4cc(F)c(F)cc34)cnn2c1 [Compound 104] | 0.2 to 1 µM | –
5 | O=C(Nc1c[nH]c2cc(F)c(F)cc12)c1cnc2cc(C(F)(F)F)ccn12 [Compound 105] | 1 to 5 µM | –
6 | O=C(Nc1c[nH]c2cc(F)c(F)cc12)c1nn(Cc2ccc(C(F)(F)F)cc2)c2ccccc12 [Compound 106, N-(5,6-difluoro-1H-indol-3-yl)-1-[[4-(trifluoromethyl)phenyl]methyl]indazole-3-carboxamide] | – | 0.2 to 1
7 | CC(C)(C)OC(=O)N1CCc2c(C(=O)Nc3c[nH]c4cc(F)c(F)cc34)csc2C1 [Compound 109, tert-butyl 3-((5,6-difluoro-1H-indol-3-yl)carbamoyl)-4.5-dihydrothieno[2,3-c]pyridine-6(7H)-carboxylate] | 0.2 to 1 µM | –
8 | CC(C)(C)OC(=O)N1Cc2n[nH]c(C(=O)Nc3c[nH]c4cc(F)c(F)cc34)c2C1 [Compound 110, tert-butyl 3-((5,6-difluoro-1H-indol-3-yl)carbamoyl)-4,6-dihydropyrrolo[3,4-c]pyrazole-5(1H)-carboxylate] | 1 to 5 µM | –
9 | CC(C)(C)OC(=O)N1CCn2nc(C(=O)Nc3c[nH]c4cc(F)c(F)cc34)cc2C1 [Compound 111, tert-butyl 2-[(5,6-difluoro-1H-indol-3-yl)carbamoyl]-4H,5H,6H,7H-pyrazolo[1,5-a]pyrazine-5-carboxylate] | 1 to 5 µM | –
10 | O=C(Nc1c[nH]c2cc(F)c(F)cc12)c1cc2cccnc2s1 [Compound 112, N-(5,6-difluoro-1H-indol-3-yl)thieno[2,3-b]pyridine-2-carboxamide] | 1 to 5 µM | –
11 | O=C(Nc1c[nH]c2cc(F)c(F)cc12)c1cn2cc(C(F)(F)F)ccc2n1 [Compound 113, N-(5,6-difluoro-1H-indol-3-yl)-6-(trifluoromethyl)imidazo[1,2-a]pyridine-2-carboxamide] | 1 to 5 µM | –
12 | CC(C)(C)OC(=O)N1CCCn2nc(C(=O)Nc3c[nH]c4cc(F)c(F)cc34)cc2C1 [Compound 114, tert-butyl 2-[(5,6-difluoro-1H-indol-3-yl)carbamoyl]-4H,5H,6H,7H,8H-pyrazolo[1,5-a][1,4]diazepine-5-carboxylate] | 5 to 100 µM | –
13 | O=C(Nc1c[nH]c2cc(F)c(F)cc12)C1Cc2[nH]nc(C(F)(F)F)c2C1 (stereo not shown) [Compound 115, N-(5,6-difluoro-1H-indol-3-yl)-3-(trifluoromethyl)-1H,4H,5H,6H-cyclopenta[c]pyrazole-5-carboxamide] | 5 to 100 µM | –
14 | O=C(Nc1c[nH]c2cc(F)c(F)cc12)c1cc2ccc(Cl)cn2n1 [Compound 116, 6-chloro-N-(5,6-difluoro-1H-indol-3-yl)pyrazolo[1,5-a]pyridine-2-carboxamide] | 0.2 to 1 µM | –
15 | CC(C)(C)OC(=O)N1CCc2c(C(=O)Nc3c[nH]c4cc(F)c(F)cc34)ncn2CC1 [Compound 117, tert-butyl 1-[(5,6-difluoro-1H-indol-3-yl)carbamoyl]-5H,6H,7H,8H,9H-imidazo[1,5-d][1,4]diazepine-7-carboxylate] | 5 to 100 µM | –
16 | O=C(Nc1c[nH]c2cc(F)c(F)cc12)c1n[nH]c2cc(OC(F)(F)F)ccc12 [Compound 118] | 0.2 to 1 µM | –
17 | O=C(Nc1c[nH]c2cc(F)c(F)cc12)c1cn2c(n1)CCC(C(F)(F)F)C2 (stereo not shown) [Compound 120, N-(5,6-difluoro-1H-indol-3-yl)-6-(trifluoromethyl)-5,6,7,8-tetrahydroimidazo[1,2-a]pyridine-2-carboxamide] | 5 to 100 µM | –
18 | O=C(Nc1c[nH]c2cc(F)c(F)cc12)c1cccc2nn(Cc3ccc(C(F)(F)F)cc3)cc12 [Compound 121] | 0.2 to 1 µM | –
19 | O=C(Nc1c[nH]c2cc(F)c(F)cc12)c1cccc2c1cnn2Cc1ccc(C(F)(F)F)cc1 [Compound 122] | 0.2 to 1 µM | –
20 | CCC1Cc2ccc(C(=O)Nc3c[nH]c4cc(F)c(F)cc34)cc2C1 (stereo not shown) [Compound 123] | 0.2 to 1 µM | –
21 | O=C(Nc1c[nH]c2cc(F)c(F)cc12)c1ccc2c(c1)OCCCO2 [Compound 124, N-(5,6-difluoro-1H-indol-3-yl)-3,4-dihydro-2H-benzo[b][1,4]dioxepine-7-carboxamide] | 0.2 to 1 µM | –
22 | O=C(Nc1c[nH]c2cc(F)c(F)cc12)c1n[nH]c2cc(OCC(F)(F)F)ccc12 [Compound 125] | 0.04 to 0.2 µM | –

Row | Structure (SMILES) | EC50 [1] | EC50 [2] [µM]
23 | O=C(Nc1c[nH]c2cc(F)c(F)cc12)c1n[nH]c2cc(NCC(F)(F)F)ccc12 [Compound 126] | 0.04 to 0.2 µM and 0.2 to 1 µM | –
24 | O=C(Nc1c[nH]c2cc(F)c(F)cc12)c1n[nH]c2cc(OCC(F)(F)F)ncc12 [Compound 128] | 0.2 to 1 µM | –
25 | O=C(Nc1c[nH]c2cc(F)c(F)cc12)c1n[nH]c2nc(OCC(F)(F)F)ccc12 [Compound 129] | 0.2 to 1 µM | –
26 | Cc1nc(C(=O)Nc2c[nH]c3cc(F)c(F)cc23)c2ccc(C(F)(F)F)cn12 [Compound 134] | 5 to 100 µM | –
27 | O=C(Nc1c[nH]c2cc(F)c(F)cc12)c1cccc2nn(CCC(F)(F)F)cc12 [Compound 137] | 0.2 to 1 µM | –
28 | O=C(Nc1c[nH]c2cc(F)c(F)cc12)c1cccc2c1cnn2CCC(F)(F)F [Compound 138] | 1 to 5 µM | –
29 | O=C(Nc1c[nH]c2ccc(Cl)cc12)c1n[nH]c2c1CN(Cc1ccc(C(F)(F)F)cc1)C2 [Compound 142, N-(5-chloro-1H-indol-3-yl)-5-(4-(trifluoromethyl)benzyl)-1,4,5,6-tetrahydropyrrolo[3,4-c]pyrazole-3-carboxamide] | 0.2 to 1 µM | –
30 | O=C(Nc1c[nH]c2ccc(Cl)cc12)c1n[nH]c2cc(N3CCC(F)(F)CC3)ncc12 [Compound 143, N-(5-chloro-1H-indol-3-yl)-6-(4,4-difluoropiperidin-1-yl)-1H-pyrazolo[4,3-c]pyridine-3-carboxamide] | 5 to 100 µM | –
31 | O=C(Nc1c[nH]c2ccc(Cl)cc12)c1n[nH]c2cc(N3CCN(CC(F)(F)F)CC3)ccc12 [Compound 144] | 0.04 to 0.2 µM | –
32 | O=C(Nc1c[nH]c2ccc(Cl)cc12)c1n[nH]c2cc(N3CCC(F)(F)CC3)ccc12 [Compound 146] | 0.04 to 0.2 µM | –
33 | O=C(Nc1c[nH]c2ccc(Cl)cc12)c1noc2cc(N3CCC(F)(F)CC3)ccc12 [Compound 147] | 0.04 to 0.2 µM | –
34 | O=C(Nc1c[nH]c2ccccc12)c1n[nH]c2cc(OCC(F)(F)F)ccc12 [Compound 148, N-(1H-indol-3-yl)-6-(2,2,2-trifluoroethoxy)-1H-indazole-3-carboxamide] | 0.04 to 0.2 µM | –
35 | O=C(Nc1c[nH]c2ccc(Cl)cc12)c1n[nH]c2cc(OCC(F)(F)F)ccc12 [Compound 149] | 0.04 to 0.2 µM | –
36 | O=C(Nc1c[nH]c2cc(F)c(F)cc12)c1cnc2cc(OCC(F)(F)F)ccn12 [Compound 150] | 0.04 to 0.2 µM | –
37 | O=C(Nc1c[nH]c2cc(F)c(F)cc12)c1n[nH]c2c1CN(CC(F)(F)F)C2 [Compound 151] | 5 to 100 µM | –
38 | O=C(Nc1c[nH]c2cc(F)c(F)cc12)c1n[nH]c2nc(N3CCC(F)(F)CC3)c(Cl)cc12 [Compound 152] | 0.2 to 1 µM | –
39 | O=C(Nc1c[nH]c2cc(F)c(F)cc12)c1n[nH]c2nc(N3CCC(F)(F)CC3)ccc12 [Compound 154] | 0.2 to 1 µM | –
40 | O=C(Nc1c[nH]c2cc(F)c(F)cc12)c1n[nH]c2cc(N3CCC(F)(F)CC3)ccc12 [Compound 155] | 0.04 to 0.2 µM | –
41 | CC1(C)CCc2c(C(=O)Nc3c[nH]c4cc(F)c(F)cc34)n[nH]c2C1 [Compound 156] | 1 to 5 µM | –
42 | Cn1nc2cc(C(F)(F)F)ccc2c1C(=O)Nc1c[nH]c2cc(F)c(F)cc12 [Compound 157] | 5 to 100 µM | –
43 | Cn1nc(C(=O)Nc2c[nH]c3cc(F)c(F)cc23)c2ccc(C(F)(F)F)cc21 [Compound 158] | 0.2 to 1 µM | –
